Reference: patent US4145554A, “3-Nitropyrazole derivatives” (Eli Lilly and Company, priority 1977, dated 1979)
≈ marks a conversion by molar mass, not a printed value. Where two headings read alike, the source gives them in different places.

Tests used:
[1] = test system: Streptococcus sp. 80; assay: in vitro tube dilution test (MIC); format: cell-based
From the text: (§1) Other compounds of our invention have also been tested in the tube dilution test and shown to have in vitro activity against a number of microorganisms. The table below reports tests of a number of exemplary compounds against exemplary microorganisms. The compounds are identified by their numbers in the listing above. The data are reported as the MIC in micrograms per milliliter against the named exemplary microorganisms.

[2] = test system: Escherichia coli; assay: in vitro tube dilution test (MIC); format: cell-based
From the text: (§2) Our compound, 1-(2-hydroxyethyl)-3-nitro-4-pyrazolecarboxamide, has been extensively tested in vitro to determine the range of microorganisms against which it is active. The table of data below reports the minimum inhibitory concentration (MIC) at which the compound is effective in controlling a variety of microorganisms in a standard tube dilution test system. The MIC is reported as micrograms of compound per milliliter.
as §1

[3] = test system: Mycoplasma gallisepticum; assay: in vitro tube dilution test (MIC); format: cell-based; settings: Mycoplasmoides gallisepticum
From the text: as §2, §1

[4] = test system: Staphylococcus aureus sp. 1130; assay: in vitro tube dilution test (MIC); format: cell-based
From the text: (§3) The other preferred compounds of our invention have also been thoroughly tested in the in vitro tube dilution test.
as §1

[5] = test system: Vibrio coli 3811; assay: in vitro tube dilution test (MIC); format: cell-based; settings: Campylobacter coli
From the text: as §3, §1

[6] = test system: Salmonella dublin; assay: in vitro tube dilution test (MIC); format: cell-based; settings: Salmonella enterica
From the text: as §3, §1

[7] = test system: Salmonella typhimurium; assay: Salmonellosis in chickens, single injection to day-old chicks; format: in vivo; settings: for responders at 60 mg/kg: Salmonella enterica, TYPHIMURIUM, 168 h; for chicks protected of the 5-bird treated group: salmonella challenge
Description: A number of our 3-nitropyrazoles have been tested against an induced infection of Salmonella typhimurium in day-old chicks. The test was conducted by administering a single injection of 60 mg./kg. of the compounds to each of five chicks. The following day, the chicks were challenged by the subcutaneous injection of a dispersion of S. typhimurium organisms sufficient to kill most or all of the untreated control chicks.
Some of the compounds were tested more than once, in which instances the data are reported as the total survivors from the multiple treatment groups. Untreated, challenged control groups of chicks were tested together with each batch of groups of chicks to which test compounds were administered. Since the mortality of the untreated control chicks varied somewhat from one group of tests to another, results of the untreated control groups are reported below with each test.

[8] = test system: Pasteurella multocida; assay: in vitro tube dilution test (MIC); format: cell-based
From the text: as §2, §3, §1

[9] = test system: Streptococcus pyogenes; assay: Tests in mice, Streptococcus pyogenes infection; format: in vivo; settings: S. pyogenes; for Days Survived: two subcutaneous doses of 83 mg./kg., 1 and 5 hours; for ED50: Streptococcus pyogenes, sc, subcutaneous, 1 and 5 hours post-inoculation
Description: (§4) Groups of laboratory mice were inoculatd with E. coli or with Streptococcus pyogenes. The 3-nitropyrazoles were administered in two different modes to the infected mice. In one group of tests, the compound was administered in two subcutaneous doses of 83 mg./kg. each, given 1 and 5 hours after the mice were inoculated with the organism. The mice were observed, and the results reported below as the number of days the treated mice survived the challenge.
(§5) In the other group of tests, the dose of each compound which allowed 50 percent of the treated mice to survive the challenge was determined. Again, the compound was administered in subcutane divided doses, 1 and 5 hours post-inoculation.

[10] = test system: E. coli; assay: Tests in mice, E. coli infection; format: in vivo; settings: for Days Survived: two subcutaneous doses of 83 mg./kg., 1 and 5 hours
Description: as §4, §5

[11] = Streptococcus sp. 80, tube dilution, read-out: MIC
[12] = Mycoplasma gallisepticum, tube dilution, read-out: MIC
[13] = Staphylococcus aureus sp. 1130, tube dilution, read-out: MIC
[14] = Vibrio coli 3811, tube dilution, read-out: MIC
[15] = Salmonella dublin, tube dilution, read-out: MIC
[16] = single injection of 60 mg./kg., seven days, read-out: Survival (converted)

Row | Structure (SMILES) | MIC [1, 11] | MIC ([2]; tube dilution, read-out: MIC) | MIC [3, 12] | MIC [4, 13] | MIC [5, 14] | MIC [6, 15] | MIC ([8]; tube dilution, read-out: MIC) | responders at 60 mg/kg [7, 16] | other results
1 | CC(=O)Cn1cc(C(N)=O)c([N+](=O)[O-])n1 [Compound 9, 1-(2-oxopropyl)-3-nitro-4-pyrazolecarboxamide] | 50 µg/mL (≈ 236 µM) | 12.5 µg/mL (≈ 58.9 µM) | > 50 µg/mL | 6.25 µg/mL (≈ 29.5 µM) | 6.25 µg/mL (≈ 29.5 µM) | 6.25 µg/mL (≈ 29.5 µM) | > 50 µg/mL | 100% | –
2 | NC(=O)c1cn(Cc2ccccc2)nc1[N+](=O)[O-] [Compound 18, 1-benzyl-3-nitro-4-pyrazolecarboxamide] | 50 µg/mL (≈ 203 µM) | 12.5 µg/mL (≈ 50.8 µM) | 6.25 µg/mL (≈ 25.4 µM) | 6.25 µg/mL (≈ 25.4 µM) | 50 µg/mL (≈ 203 µM) | 12.5 µg/mL (≈ 50.8 µM) | 12.5 µg/mL (≈ 50.8 µM) | 70% | –
3 | CCS(=O)(=O)CCn1cc(C(N)=O)c([N+](=O)[O-])n1 [Compound 35, 1-(2-ethylsulfonylethyl)-3-nitro-4-pyrazolecarboxamide] | 25 µg/mL (≈ 90.5 µM) | 50 µg/mL (≈ 181 µM) | > 50 µg/mL | 3.12 µg/mL (≈ 11.3 µM) | 50 µg/mL (≈ 181 µM) | 50 µg/mL (≈ 181 µM) | 6.25 µg/mL (≈ 22.6 µM) | 80% | Days Survived [9]: 7.0 days; ED50 [9]: 36.2 mg/kg; Days Survived [10]: 1.0 days
4 | NC(=O)c1cn(CCCl)nc1[N+](=O)[O-] [Compound 52, 1-(2-chloroethyl)-3-nitro-4-pyrazolecarboxamide] | 50 µg/mL (≈ 229 µM) | 3.12 µg/mL (≈ 14.3 µM) | > 50 µg/mL | > 1.56 µg/mL | 25 µg/mL (≈ 114 µM) | 3.12 µg/mL (≈ 14.3 µM) | 12.5 µg/mL (≈ 57.2 µM) | 80% | –
5 | NC(=O)c1cn(C2C=CC(n3cc(C(N)=O)c([N+](=O)[O-])n3)C=C2)nc1[N+](=O)[O-] (centres unmarked) [Compound 59, 1,1'-(2,5-cyclohexadien-1,4-ylene)-bis(3-nitro-4-pyrazolecarboxamide)] | – | – | – | – | – | – | – | – | MIC ([1]; Streptococcus, SP.80): > 50 µg/mL; MIC [2]: 3.12 µg/mL (≈ 8.04 µM); MIC [3]: 3.12 µg/mL (≈ 8.04 µM); MIC ([4]; Staphylococcus aureus, SP.1130): 1.56 µg/mL (≈ 4.02 µM); MIC [5]; 3811: 12.5 µg/mL (≈ 32.2 µM); MIC [6]: 3.12 µg/mL (≈ 8.04 µM); chicks protected of the 5-bird treated group [7]: at least three chicks of the 5-bird treated group; MIC [8]: 3.12 µg/mL (≈ 8.04 µM)
6 | CNC(=O)c1cn(C)nc1[N+](=O)[O-] [Compound 61, N,1-dimethyl-3-nitro-4-pyrazolecarboxamide] | 50 µg/mL (≈ 272 µM) | 50 µg/mL (≈ 272 µM) | 12.5 µg/mL (≈ 67.9 µM) | 50 µg/mL (≈ 272 µM) | – | 50 µg/mL (≈ 272 µM) | – | 70% | Days Survived [9]: 1.0 days; ED50 [9]: > 83 mg/kg; ED50 ([10]; Escherichia coli, sc, subcutaneous, 1 and 5 hours post-inoculation): 68 mg/kg
7 | CC(C)n1cc(C(N)=O)c([N+](=O)[O-])n1 [Compound 64, 1-isopropyl-3-nitro-4-pyrazolecarboxamide] | > 50 µg/mL | 25 µg/mL (≈ 126 µM) | 50 µg/mL (≈ 252 µM) | 50 µg/mL (≈ 252 µM) | > 50 µg/mL | 12.5 µg/mL (≈ 63.1 µM) | 50 µg/mL (≈ 252 µM) | 60% | –
8 | CC=CCn1cc(C(N)=O)c([N+](=O)[O-])n1 [Compound 75, 1-(2-butenyl)-3-nitro-4-pyrazolecarboxamide] | > 50 µg/mL | 50 µg/mL (≈ 238 µM) | > 50 µg/mL | 12.5 µg/mL (≈ 59.5 µM) | 12.5 µg/mL (≈ 59.5 µM) | 25 µg/mL (≈ 119 µM) | 25 µg/mL (≈ 119 µM) | 60% | –
9 | CCOCCn1cc(C#N)c([N+](=O)[O-])n1 [Compound 84, 1-(2-ethoxyethyl)-3-nitro-4-pyrazolecarbonitrile] | 50 µg/mL (≈ 238 µM) | 50 µg/mL (≈ 238 µM) | 50 µg/mL (≈ 238 µM) | 50 µg/mL (≈ 238 µM) | 25 µg/mL (≈ 119 µM) | 50 µg/mL (≈ 238 µM) | 25 µg/mL (≈ 119 µM) | 80% | –
10 | CC(C)NC(=O)c1cn(CCO)nc1[N+](=O)[O-] [Compound 88, 1-(2-hydroxyethyl)-N-isopropyl-3-nitro-4-pyrazolecarboxamide] | > 50 µg/mL | 50 µg/mL (≈ 206 µM) | 3.12 µg/mL (≈ 12.9 µM) | > 50 µg/mL | 50 µg/mL (≈ 206 µM) | > 50 µg/mL | 6.25 µg/mL (≈ 25.8 µM) | – | Days Survived [9]: 2.0 days; Days Survived [10]: 4.8 days
11 | NC(=O)OCCn1cc(C(N)=O)c([N+](=O)[O-])n1 [Compound 93, [2-(4-carbamoyl-3-nitropyrazol-1-yl)ethyl] carbamate] | 6.25 µg/mL (≈ 25.7 µM) | 12.5 µg/mL (≈ 51.4 µM) | 12.5 µg/mL (≈ 51.4 µM) | 3.12 µg/mL (≈ 12.8 µM) | 50 µg/mL (≈ 206 µM) | 6.25 µg/mL (≈ 25.7 µM) | < 1.56 µg/mL | – | responders at 60 mg/kg ([7]; read-out: Survival): 100%
12 | NC(=O)c1cn(CCBr)nc1[N+](=O)[O-] [Compound 96, 1-(2-bromoethyl)-3-nitropyrazole-4-carboxamide] | > 50 µg/mL | 6.25 µg/mL (≈ 23.8 µM) | 25 µg/mL (≈ 95 µM) | < 1.56 µg/mL | 25 µg/mL (≈ 95 µM) | 3.12 µg/mL (≈ 11.9 µM) | 12.5 µg/mL (≈ 47.5 µM) | 100% | –

The next lines start with results.

Row | MIC [1, 11] | MIC ([2]; tube dilution, read-out: MIC) | MIC [3, 12] | MIC [4, 13] | MIC [5, 14] | MIC [6, 15] | MIC ([8]; tube dilution, read-out: MIC) | Structure (SMILES) | responders at 60 mg/kg [7, 16] | other results
13 | 50 µg/mL (≈ 233 µM) | 6.25 µg/mL (≈ 29.2 µM) | 1.56 µg/mL (≈ 7.28 µM) | 50 µg/mL (≈ 233 µM) | 12.5 µg/mL (≈ 58.4 µM) | 3.12 µg/mL (≈ 14.6 µM) | 6.25 µg/mL (≈ 29.2 µM) | NC(=O)c1cn(CCCO)nc1[N+](=O)[O-] [Compound 62, 1-(3-hydroxypropyl)-3-nitro-4-pyrazolecarboxamide] | 70% | –
14 | > 50 µg/mL | 50 µg/mL (≈ 215 µM) | 6.25 µg/mL (≈ 26.9 µM) | 50 µg/mL (≈ 215 µM) | 25 µg/mL (≈ 107 µM) | 12.5 µg/mL (≈ 53.7 µM) | 25 µg/mL (≈ 107 µM) | NC(=O)c1cn(CCCCl)nc1[N+](=O)[O-] [Compound 63, 1-(3-chloropropyl)-3-nitro-4-pyrazolecarboxamide] | 40% | –
15 | 25 µg/mL (≈ 95.3 µM) | 50 µg/mL (≈ 191 µM) | 50 µg/mL (≈ 191 µM) | 25 µg/mL (≈ 95.3 µM) | > 50 µg/mL | > 50 µg/mL | 12.5 µg/mL (≈ 47.7 µM) | CS(=O)(=O)CCn1cc(C(N)=O)c([N+](=O)[O-])n1 [Compound 66, 1-[2-(methylsulfonyl)ethyl]-3-nitro-4-pyrazolecarboxamide] | 40% | –
16 | 50 µg/mL (≈ 184 µM) | 50 µg/mL (≈ 184 µM) | 25 µg/mL (≈ 91.8 µM) | 50 µg/mL (≈ 184 µM) | 50 µg/mL (≈ 184 µM) | 50 µg/mL (≈ 184 µM) | 50 µg/mL (≈ 184 µM) | CCOC(Cn1cc(C(N)=O)c([N+](=O)[O-])n1)OCC [Compound 82, 1-(2,2-diethoxyethyl)-3-nitro-4-pyrazolecarboxamide] | 80% | –
17 | > 50 µg/mL | > 50 µg/mL | 50 µg/mL (≈ 233 µM) | > 50 µg/mL | 25 µg/mL (≈ 116 µM) | > 50 µg/mL | > 50 µg/mL | N#Cc1cn(CCCCl)nc1[N+](=O)[O-] [Compound 83, 1-(3-chloropropyl)-3-nitro-4-pyrazolecarbonitrile] | 80% | –
18 | > 50 µg/mL | > 50 µg/mL | 3.12 µg/mL (≈ 12.2 µM) | > 50 µg/mL | 50 µg/mL (≈ 195 µM) | > 50 µg/mL | > 50 µg/mL | CCCCNC(=O)c1cn(CCO)nc1[N+](=O)[O-] [Compound 85, N-butyl-1-(2-hydroxyethyl)-3-nitro-4-pyrazolecarboxamide] | – | chicks protected of the 5-bird treated group [7]: at least three chicks of the 5-bird treated group
